Data as given in ChEMBL document CHEMBL1135808, “A new type of mixed anhydride and its applications to the synthesis of 7-substituted 8-chloro-5,5-dioxoimidazo[1,2-b][1,4,2]benzodithiazines with in vitro antitumor activity” (2002).

Experiments:
Type in all cases: functional
[1] = system: M14; experiment: In vitro growth inhibition against melanoma M14 cell line was reported.; details: Homo sapiens
[2] = system: MOLT-4; experiment: Log of molar concentration leading to 50% cell death against leukemia MOLT-4 cell line was reported; details: Homo sapiens, read-out: Log LC50 (the source's name) (converted)
[3] = system: NCI-H23; experiment: Log of molar concentration leading to 50% cell death against non-small-cell lung cancer NCI-H23 cell line was reported; details: Homo sapiens, read-out: Log LC50 (the source's name) (converted)
[4] = system: HCT-116; experiment: Log of molar concentration leading to 50% cell death against colon cancer HCT116 cell line was reported; details: Homo sapiens, read-out: Log LC50 (the source's name) (converted)
[5] = system: HOP-92; experiment: Log of molar concentration leading to 50% cell death against non-small-cell lung cancer HOP-92 cell line was reported; details: Homo sapiens, read-out: Log LC50 (the source's name) (converted)
[6] = system: MOLT-4; experiment: In vitro total growth inhibition against leukemia MOLT-4 cell lines was reported.; details: Homo sapiens, read-out: Log TGI (converted)
[7] = system: MDA-N; experiment: Log of molar concentration leading to 50% cell death against breast cancer MDA-Ncell line was reported; details: Homo sapiens, read-out: Log LC50 (the source's name) (converted)
[8] = system: OVCAR-4; experiment: In vitro growth inhibition against ovarian cancer OVCAR-4 cell line was reported.; details: Homo sapiens
[9] = system: SK-OV-3; experiment: In vitro growth inhibition against ovarian cancer SK-OV-3 cell line was reported.; details: Homo sapiens
[10] = system: SNB-19; experiment: Log of molar concentration leading to 50% cell death against CNS cancer SNB-19 cell line was reported; details: Homo sapiens, read-out: Log LC50 (the source's name) (converted)
[11] = system: SNB-19; experiment: In vitro total growth inhibition against CNS cancer SNB-19 cell lines was reported.; details: Homo sapiens, read-out: Log TGI (converted)
[12] = system: HT-29; experiment: Log of molar concentration leading to 50% cell death against colon cancer HT-29 cell line was reported; details: Homo sapiens, read-out: Log LC50 (the source's name) (converted)
[13] = system: COLO 205; experiment: Log of molar concentration leading to 50% cell death against colon cancer COLO 205 cell line was reported; details: Homo sapiens, read-out: Log LC50 (the source's name) (converted)
[14] = system: SK-MEL-28; experiment: Log of molar concentration leading to 50% cell death against melanoma SK-MEL-28 cell line was reported; details: Homo sapiens, read-out: Log LC50 (the source's name) (converted)
[15] = system: OVCAR-3; experiment: In vitro growth inhibition against ovarian cancer OVCAR-3 cell line was reported.; details: Homo sapiens
[16] = system: DU-145; experiment: In vitro growth inhibition against prostate cancer […] cell line was reported.; details: Homo sapiens
[17] = system: MDA-MB-231; experiment: In vitro total growth inhibition against breast cancer MDA-MB-231/ATCC cell lines was reported.; details: Homo sapiens, read-out: Log TGI (converted)
[18] = system: SN12C; experiment: In vitro total growth inhibition against renal cancer SN12C cell lines was reported.; details: Homo sapiens, read-out: Log TGI (converted)
[19] = system: OVCAR-3; experiment: Log of molar concentration leading to 50% cell death against ovarian cancer OVCAR-3 cell line was reported; details: Homo sapiens, read-out: Log LC50 (the source's name) (converted)
[20] = system: SK-MEL-5; experiment: In vitro growth inhibition against melanoma SK-MEL-5 cell line was reported.; details: Homo sapiens
[21] = system: SN12C; experiment: In vitro growth inhibition against renal cancer SN12C cell line was reported.; details: Homo sapiens
[22] = system: A498; experiment: In vitro total growth inhibition against renal cancer A-498 cell lines was reported.; details: Homo sapiens, read-out: Log TGI (converted)
[23] = system: BT-549; experiment: Log of molar concentration leading to 50% cell death against breast cancer BT 549 cell line was reported; details: Homo sapiens, read-out: Log LC50 (the source's name) (converted)
[24] = system: A498; experiment: In vitro growth inhibition against renal cancer A498 cell line was reported.; details: Homo sapiens
[25] = system: KM12; experiment: In vitro growth inhibition against colon cancer KM12 cell line was reported.; details: Homo sapiens
[26] = system: NCI-H46; experiment: In vitro growth inhibition against non-small-cell lung cancer […] cell line was reported.; details: Homo sapiens
[27] = system: MCF7; experiment: In vitro growth inhibition against breast cancer MCF 7 cell line was reported.; details: Homo sapiens
[28] = system: HCC 2998; experiment: In vitro total growth inhibition against colon cancer HCC2998 cell lines was reported.; details: Homo sapiens, read-out: Log TGI (converted)
[29] = system: UACC-257; experiment: In vitro total growth inhibition against melanoma UACC-257 cell line was reported.; details: Homo sapiens
[30] = system: A498; experiment: Log of molar concentration leading to 50% cell death against renal cancer A498 cell line was reported; details: Homo sapiens, read-out: Log LC50 (the source's name) (converted)
[31] = system: IGROV-1; experiment: In vitro total growth inhibition against ovarian cancer IGROV1 cell lines was reported.; details: Homo sapiens, read-out: Log TGI (converted)
[32] = system: SK-MEL-28; experiment: In vitro growth inhibition against melanoma SK-MEL-28 cell line was reported.; details: Homo sapiens
[33] = system: BT-549; experiment: In vitro total growth inhibition against breast cancer BT 549 cell line was reported.; details: Homo sapiens, read-out: Log TGI (converted)
[34] = system: HCT-15; experiment: Log of molar concentration leading to 50% cell death against colon cancer HCT-15 cell line was reported; details: Homo sapiens, read-out: Log LC50 (the source's name) (converted)
[35] = system: UO-31; experiment: Log of molar concentration leading to 50% cell death against renal cancer UO-31 cell line was reported; details: Homo sapiens, read-out: Log LC50 (the source's name) (converted)
[36] = system: T47D; experiment: In vitro growth inhibition against breast cancer […] cell line was reported.; details: Homo sapiens
[37] = system: NCI-H226; experiment: Log of molar concentration leading to 50% cell death against non-small-cell lung cancer NCI-H226 cell line was reported; details: Homo sapiens, read-out: Log LC50 (the source's name) (converted)
[38] = system: PC-3; experiment: In vitro total growth inhibition against prostate cancer PC-3 cell lines was reported.; details: Homo sapiens, read-out: Log TGI (converted)
[39] = system: T47D; experiment: Log of molar concentration leading to 50% cell death against breast cancer […] cell line was reported; details: Homo sapiens, read-out: Log LC50 (the source's name) (converted)
[40] = system: KM12; experiment: Log of molar concentration leading to 50% cell death against colon cancer KM12 cell line was reported; details: Homo sapiens, read-out: Log LC50 (the source's name) (converted)
[41] = system: SN12C; experiment: Log of molar concentration leading to 50% cell death against renal cancer SN12C cell line was reported; details: Homo sapiens, read-out: Log LC50 (the source's name) (converted)
[42] = system: SF-268; experiment: In vitro total growth inhibition against CNS cancer SF-268 cell lines was reported.; details: Homo sapiens, read-out: Log TGI (converted)
[43] = system: OVCAR-8; experiment: In vitro total growth inhibition against ovarian cancer OVCAR-8 cell lines was reported.; details: Homo sapiens, read-out: Log TGI (converted)
[44] = system: KM12; experiment: In vitro total growth inhibition against colon cancer KM12 cell lines was reported.; details: Homo sapiens, read-out: Log TGI (converted)
[45] = system: LOX IMVI; experiment: Log of molar concentration leading to 50% cell death against melanoma LOX IMVI cell line was reported; details: Homo sapiens, read-out: Log LC50 (the source's name) (converted)
[46] = system: SW-620; experiment: Log of molar concentration leading to 50% cell death against colon cancer SW620 cell line was reported; details: Homo sapiens, read-out: Log LC50 (the source's name) (converted)
[47] = Log of molar concentration leading to 50% cell death against breast cancer MDA-MB-435 cell line was reported; details: Homo sapiens, read-out: Log LC50 (the source's name) (converted)
[48] = system: OVCAR-5; experiment: Log of molar concentration leading to 50% cell death against ovarian cancer […] cell line was reported; details: Homo sapiens, read-out: Log LC50 (the source's name) (converted)
[49] = system: SK-OV-3; experiment: In vitro total growth inhibition against ovarian cancer SK-OV-3 cell lines was reported.; details: Homo sapiens, read-out: Log TGI (converted)
[50] = system: Malme-3M; experiment: In vitro total growth inhibition against melanoma MALME 3M cell lines was reported.; details: Homo sapiens, read-out: Log TGI (converted)
[51] = system: SR; experiment: Log of molar concentration leading to 50% cell death against leukemia SR cell line was reported; details: Homo sapiens, read-out: Log LC50 (the source's name) (converted)
[52] = system: Malme-3M; experiment: Log of molar concentration leading to 50% cell death against melanoma MALME 3M cell line was reported; details: Homo sapiens, read-out: Log LC50 (the source's name) (converted)

O=C(Nc1cccc2nsnc12)c1cc2c(cc1Cl)Sc1nccn1S2(=O)=O showed a GI50 [1] of 17.4 µM, a CC50 [2] of 83.2 µM and a CC50 [3] of 55 µM. The CC50 [4] was 12.9 µM, the CC50 [5] was 95.5 µM and the TGI [6] was 9.33 µM. The CC50 [7] was 56.2 µM, the GI50 [8] was 2.75 µM and the GI50 [9] was 45.7 µM. For the same molecule, the CC50 [10] was 50.1 µM, the TGI [11] was 24.5 µM and the CC50 [12] was 28.8 µM. The CC50 [13] was 56.2 µM, the CC50 [14] was 46.8 µM and the GI50 [15] was 1.78 µM. It also gave a GI50 [16] of 1.74 µM, a TGI [17] of 24.5 µM and a TGI [18] of 28.8 µM. The CC50 [19] was 6.61 µM, the GI50 [20] was 15.8 µM and the GI50 [21] was 15.1 µM. The TGI [22] was 26.3 µM, the CC50 [23] was 85.1 µM and the GI50 [24] was 13.5 µM. The GI50 [25] was 2.04 µM, the GI50 [26] was 2.04 µM and the GI50 [27] was 1.74 µM. It also gave a TGI [28] of 11.7 µM, a GI50 [29] of 1.82 µM and a CC50 [30] of 63.1 µM. For the same molecule, the TGI [31] was 23.4 µM, the GI50 [32] was 2.45 µM and the TGI [33] was 32.4 µM. It also gave a CC50 [34] of 72.4 µM, a CC50 [35] of 50.1 µM and a GI50 [36] of 1.7 µM. It also gave a CC50 [37] of 58.9 µM, a TGI [38] of 3.55 µM and a CC50 [39] of 7.76 µM. The CC50 [40] was 7.41 µM, the CC50 [41] was 56.2 µM and the TGI [42] was 16.2 µM. It also gave a TGI [43] of 7.08 µM and a TGI [44] of 3.89 µM.
In the case of Cc1ccc2cccc(NC(=O)c3cc4c(cc3Cl)Sc3nccn3S4(=O)=O)c2n1, the GI50 [1] was 7.24 µM, the CC50 [45] was 45.7 µM and the CC50 [4] was 40.7 µM. It also gave a TGI [6] of 20 µM, a GI50 [8] of 11 µM and a CC50 [46] of 58.9 µM. For the same molecule, the GI50 [9] was 26.9 µM, the TGI [11] was 33.9 µM and the CC50 [13] was 55 µM. It also gave a CC50 [14] of 75.9 µM, a GI50 [15] of 2.95 µM and a GI50 [16] of 5.5 µM. It also gave a CC50 [47] of 55 µM, a TGI [17] of 24 µM and a CC50 [19] of 34.7 µM. For the same molecule, the CC50 [48] was 91.2 µM, the GI50 [20] was 10.7 µM and the GI50 [21] was 12.3 µM. The TGI [22] was 40.7 µM, the TGI [49] was 97.7 µM and the TGI [50] was 33.1 µM. The GI50 [24] was 16.2 µM, the GI50 [25] was 6.61 µM and the GI50 [26] was 2.63 µM. It also gave a CC50 [51] of 27.5 µM, a GI50 [27] of 3.24 µM and a TGI [28] of 4.68 µM. The GI50 [29] was 13.8 µM, the TGI [31] was 6.92 µM and the GI50 [32] was 9.55 µM. The TGI [33] was 60.3 µM, the GI50 [36] was 2.4 µM and the TGI [38] was 10.5 µM. For the same molecule, the CC50 [39] was 38 µM, the CC50 [40] was 43.7 µM and the TGI [43] was 14.5 µM. It also gave a TGI [44] of 19.1 µM and a CC50 [52] of 64.6 µM.
